Reference: patent US20070238700A1, “N-PHENYL-1,1,1-TRIFLUOROMETHANESULFONAMIDE HYDRAZONE DERIVATIVE COMPOUNDS AND THEIR USAGE IN CONTROLLING PARASITES” (priority 2006, published 2007)
Like-named read-outs stand apart in the source and are kept apart here.

Tests used:
Ctenocephalides felis [1] = test system: Ctenocephalides felis
Summary of the method: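 Adult cat fleas (3–7 days post-emergence), 15 per flask in ≥4 replicates, exposed to a dried acetone residue at 1.26 μg/cm^2 on a Coatasil-treated glass flask base. Held at 25±1° C, 75±5% humidity; mortality (immobile or unable to right) scored at 8, 24 and/or 48 h.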

Ctenocephalides felis [2] = assay: Ctenocephalides felis adulticide assay: C. felis dose response (LC50)
From the text: c) Ctenocephalides felis Adulticide Assay: C. felis Dose Response
The purpose of this example was to determine the LC50 when cat fleas were contacted with a glass surface treated with sample compounds or formulations prepared as described above. […] The test species was the cat flea (Ctenocephalides felis). The strain used was obtained from external suppliers as pupae and held in the laboratory under testing conditions until the adults had emerged. Fifteen (15) fleas were used in a minimum of four replicates for each dose level (total of 60 fleas per dose level). The insects were selected to be in the adult life stage, aged between 3 and 7 days post emergence.
The compounds to be tested were dissolved in acetone just prior to testing. Samples of compounds were stored in a refrigerator (5±1° C.) unless otherwise specified. During the mortality testing, the temperature was maintained at 25±1° C. Humidity was maintained at 75±5%. The base (area=159 mm^2) of a 100 mL glass Erlenmeyer (conical) flask provided the treatment surface. Flasks were pretreated with Coatasil™ glass treatment to maximise bio-availability of test compounds by preventing them from binding to the glass surface.
The base of the 100 mL Erlenmeyer flask was treated with 0.5 mL of test sample in acetone and gently swirled. This volume was sufficient to cover the base of the flask. Flasks were left to dry for 24 hours before flea exposure. Adult cat fleas were lightly anaesthetised by cooling and then placed into a sorting chamber, which allowed fleas to revive and jump into the Erlenmeyer flasks. Fifteen (15) adult cat fleas were collected in each flask. The top of the flasks were then covered in Parafilm™ and small holes made to allow gas exchange. A 0.5 mL volume of acetone was applied to the base of an Erlenmeyer flask and the testing proceeded in the same manner described above. Cat fleas in the treatment containers were held under testing conditions for 24 hours. Mortality resulting from the treatments was recorded at 8 and 24 hours.

Rhipicephalus sanguineus [3] = assay: Rapid screening protocol for topical application on brown dog ticks (% mortality); set-up: concentration or dose not given beside the values
Protocol: d) Rapid Screening Protocol for Topical Application on Brown Dog Ticks (Rhipicephalus sanguineus)
The aim of the test was to determine the presence of significant acaricidal activity in sample compounds or formulations when applied topically on brown dog ticks. A tick was defined as dead if it gave no apparent response when touched lightly and observed for 1 minute. To assess the experimental compound for acaricidal activity, a single dose level was chosen based on known results from previous experiments with a commercially available active reference compound. Both permethrin and fipronil were employed as reference compounds. The insect species tested was the Brown Dog Tick (Rhipicephalus sanguineus). Mixed sex adult ticks were used for tests. The strain used was cultured by von Berky Veterinary Services, Woody Point, QLD, AU and supplied as unfed adult ticks (mixed sex). Ticks were maintained in controlled conditions (temp. 18°±2° C., humidity 75±5% RH).
Test compounds (formulations or active ingredients) were stored in a refrigerator (5±1° C.) unless otherwise specified. Temperature was maintained at 25±1° C. and the humidity was ambient. The screening dose chosen was higher than that known to kill 90% of insects (LD90) using the reference compound. In the case of topical application of active compounds on adult ticks, the reference compound was fipronil and the dose chosen was 10 μg of active per tick (=10 μg of fipronil/1 μl of acetone). Ticks were each treated on the abdomen with 1 μL of a single dose level of test sample in acetone; ten ticks were treated with solvent only (acetone) in each test. Tests were replicated 4 times (total of 40 ticks treated). Ticks were held in recovery containers maintained under appropriate rearing conditions for 24 hours. Mortality resulting from the treatments was recorded at 24 hours. Pooled 24 hour mortality data were converted to percentages.

Rhipicephalus sanguineus [4] = assay: Dose response protocol for topical application on brown dog ticks (LD50); details: 24 h mortality, probit analysis
Protocol: e) Dose response protocol for topical application on brown dog ticks (Rhipicephalus sanguineus): The test determines the level of insecticidal activity of sample compounds or formulations when applied topically on brown dog ticks. Sample compounds were stored prior to use in a freezer (−5±1° C.), unless otherwise specified.
• Mortality: A tick is defined as dead after it gives no apparent response when touched lightly or gently breathed upon, while observed for 30 seconds. • LD50 (Lethal Dose 50): The dose of a topically applied treatment at which 50% of the dog ticks are killed. • Reference compound: To assess an experimental compound for significant acaricidal activity a single dose level is chosen, which is based upon known results from previous experiments using a commercially available active i.e., a reference compound. The reference compound selected is one in common use, and one that has a similar mode of action against the Brown Dog Tick (i.e., the test species), • Recovery container: A recovery container consists of a 500 ml round plastic container measuring 115 mm diameter and 70 mm height, with a tight fitting lid that has 10 small (˜1 mm) holes inserted for air exchange. A 90 mm diameter piece of filter paper was placed on the bottom of the container and moistened with 1 mL of distilled water.
Adult, mixed sex, Brown Dog Ticks (Rhipicephalus sanguineus) were reared as follows: (i) cultured, (ii) transferred unfed, to a testing laboratory, and (iii) then maintained under controlled conditions (i.e., temp. 18°±2° C., humidity 75±5% RH). The ticks used were selected for vigor prior to testing, i.e., capable of actively walking and responsive to being touched or gently breathed upon.
During the testing, the temperature was maintained at 25±1° C. and the humidity was ambient. Seven dose levels (concentrations) of sample compound, in the form of serial dilutions in acetone, were derived from a pilot study and covered a range that produced very low to very high mortality. Groups of ten ticks were treated topically (on the abdomen) with 1 μL of a single dose level of the sample compound. Each test was replicated four times, i.e., employing a total of 40 ticks per dose level of each sample compound. As a control, ten ticks were treated with solvent only (acetone) for each test. Following the treatment, the ticks were held in recovery containers maintained under appropriate rearing conditions for 24 hours. Mortality resulting from the treatments was recorded at 24 hours. […] Press, London (1971).]

Compound	C. felis Mortality (%) 8 h (Ctenocephalides felis [1])	C. felis Mortality (%) 24 h (Ctenocephalides felis [1])	C. felis LC50 (Ctenocephalides felis [2]; data from laboratory 1)	R. sanguineus Mortality (%) 24 h (Rhipicephalus sanguineus [3]; data from laboratory 1)	R. sanguineus LD50 (Rhipicephalus sanguineus [4])	C. felis LC50 (Ctenocephalides felis [2])	C. felis Mortality (%) 48 h (Ctenocephalides felis [1])	R. sanguineus Mortality (%) 24 h (Rhipicephalus sanguineus [3]; data from laboratory 2)	C. felis Mortality (%) 24 h (Ctenocephalides felis [1]; 24 h, data from laboratory 1)	C. felis Mortality (%) 48 h (Ctenocephalides felis [1]; 48 h, data from laboratory 1)
CC(=NN1CCCCC1)c1cc(Cl)ccc1NS(=O)(=O)C(F)(F)F [Compound 21, N-[2-[1-(1-piperidyl)imino]ethyl-4-chlorophenyl]-trifluoromethanesulfonamide]	100%	100%	0.90 ppm	78^A %	0.64 μg/tick					
CC(=NN1CCOC1=O)c1cc(Cl)ccc1NS(=O)(=O)C(F)(F)F [Compound 23]	100%	100%		95^A %	0.99 μg/tick	2.0 ppm				
CCCN(N=C(C)c1cc(Cl)ccc1NS(=O)(=O)C(F)(F)F)c1ccccc1 [Compound 25]	100%	100%		75^A %	1.2 μg/tick	1.8 ppm				
CCN(N=C(C)c1cc(Cl)ccc1NS(=O)(=O)C(F)(F)F)c1ccc(Cl)cc1 [Compound 26]		100%			5.4 μg/tick	0.12 ppm	100%	97%		
CCCN(N=C(C)c1cc(Cl)ccc1NS(=O)(=O)C(F)(F)F)c1ccc(Cl)cc1 [Compound 27]		100%			5.5 μg/tick	0.23 ppm	100%	95%		
CCN(N=C(C)c1cc(Cl)ccc1NS(=O)(=O)C(F)(F)F)c1ccc(Cl)cc1Cl [Compound 30]		100%			8.5 μg/tick	5.2 ppm	100%	90%		
CCN(N=C(C)c1cc(Cl)ccc1NS(=O)(=O)C(F)(F)F)c1ccccc1 [Compound 34]			0.97 ppm		3.6 μg/tick			100%	100%	100%
CCC(=NN1CCOC1=O)c1cc(Cl)ccc1NS(=O)(=O)C(F)(F)F [Compound 35]		100%			1.5 μg/tick	4.3 ppm	100%	100%		
CCC(=NN1CCOCC1)c1cc(Cl)ccc1NS(=O)(=O)C(F)(F)F [Compound 36]		100%			1.8 μg/tick	2.5 ppm	100%	100%		
CCN(N=C(C)c1cc(Cl)ccc1NS(=O)(=O)C(F)(F)F)c1cccc(Cl)c1 [Compound 38]		100%			3.6 μg/tick	2.5 ppm	100%	98%		
CCN(N=C(C)c1cc(Cl)ccc1NS(=O)(=O)C(F)(F)F)c1ccc(F)cc1 [Compound 39]		100%			3.6 μg/tick	0.14 ppm	100%	100%		
CCCN(N=C(C)c1cc(Cl)ccc1NS(=O)(=O)C(F)(F)F)c1ccc(C(F)(F)F)cc1 [Compound 41]		94%			3.8 μg/tick	0.44 ppm	100%	100%		
CCN(N=C(C)c1cc(Cl)ccc1NS(=O)(=O)C(F)(F)F)c1ccccc1F [Compound 43]		90%			3.0 μg/tick	0.35 ppm	100%	100%		
CC(=NN(c1ccc(F)cc1)C(C)C)c1cc(Cl)ccc1NS(=O)(=O)C(F)(F)F [Compound 48]	95%	100%			6.3 μg/tick	0.64 ppm		80%		
CC(=NN(C)c1ccccc1F)c1cc(Cl)ccc1NS(=O)(=O)C(F)(F)F [Compound 49]	100%	100%	0.31 ppm		1.6 μg/tick			100%		
CC(=NN(C)c1cccc(Cl)c1)c1cc(Cl)ccc1NS(=O)(=O)C(F)(F)F [Compound 51]	100%	100%			2.6 μg/tick	0.82 ppm		100%		
CCN(N=C(C)c1cc(Cl)ccc1NS(=O)(=O)C(F)(F)F)c1ccc(Br)cc1 [Compound 54]	95%	100%			5.6 μg/tick	1.6 ppm		95%		
CC(=NN1CC(=O)NC1=O)c1cc(Cl)ccc1NS(=O)(=O)C(F)(F)F [Compound 55]	100%	100%	2.5 ppm		1.7 μg/tick			100%		
CC(=NN(C)C(=O)c1ccc(Cl)cc1)c1cc(Cl)ccc1NS(=O)(=O)C(F)(F)F [Compound 59]	100%	100%			1.8 μg/tick	2.9 ppm		100%		
CCC(=NNC(=O)c1ccc(Cl)cc1)c1cc(Cl)ccc1NS(=O)(=O)C(F)(F)F [Compound 60]	60%	100%			7.1 μg/tick	4.1 ppm		75%		
CC(=NN(C)C(=O)c1ccc(Cl)cc1Cl)c1cc(Cl)ccc1NS(=O)(=O)C(F)(F)F [Compound 62]	100%	100%			1.6 μg/tick	2.2 ppm		100%		
